Like-named read-outs stand apart in the source and are kept apart here. Peptide text beside a SMILES is read from it.
Experiments:
A549 cells = type: cell-based; details: for Letal Dose (μM) LD25: Table II, 72 h, MTT, 25% cell death
Method: (§1) H1650, H1975, H1299, A549 cell lines were cultured in DMEM medium supplemented with 10% of FCS. HBEC cell lines (wt and Ras V12) were cultured in KSFM supplemented with growth factors. All the cell lines come from human non small cell lung cancer (NSCLC).
(§2) The cytotoxicity of penetrating peptides or chemotherapeutic agents, alone or in combination, was evaluated by the (3-(4,5-dimethylthiazol-2-yl)-2,5-diphenyltetrazolium bromide) tetrazolium (MTT) reduction assay. The cells were seeded in 96-well plates (100 μL/well) at a cell density defined from growth curves. After 24 hours of incubation, cells were treated with the peptides for 72 hours. The wells were rinsed two times with RPMI. After washing, 10 μl of stock MTT solution (5 mg/ml; MTT (SIGMA #M-2128) in PBS Dubecco's 1× without Ca^2+ and Mg^2+) was added to a final volume of 100 μl of culture medium. Cell lines were incubated for additional 4 hours at 37° C. under humid atmosphere with 5% (v/v) CO2. The formation of blue formazan crystals was detected under a microscope. An equal volume of 10% SDS (MERCK, #926.238) in 10 mM HCl was added to each well and the plate was placed in the incubator overnight to dissolve formazan crystals. The plates were mixed to ensure complete solubilisation of formazan crystals and absorbance was measured at 570 nm and 620 nm. The percentage of viable cells was estimated using the formula: % cell viability=ΔOD(570-620) treated/ΔOD(570-620)control×100.
(§3) Cell-penetrating peptides (CPPs) comprising the binding site of TEAD to TAZ or YAP or of YAP to TEAD (TAZ, TEAD and YAP peptides, respectively) were chemically synthesized. The effect of the peptides on cell viability was assayed on several human non small cell lung cancer (NSCLC) cell lines. All the lung cancer cell lines were treated for 72 h with different peptide concentrations. Cytotoxicity was analysed as described in Materials and Methods.

H1299 cells = type: cell-based; details: for Letal Dose (μM) LD25: Table II, 72 h, MTT, 25% cell death
Method: as §1, §2, §3

H1650 cells = type: cell-based; details: for Letal Dose (μM) LD25: Table II, 72 h, MTT, 25% cell death
Method: as §1, §2, §3

H1975 cells = type: cell-based; details: for Letal Dose (μM) LD25: Table II, 72 h, MTT, 25% cell death
Method: as §1, §2, §3

HBEC RasV12 cells = type: cell-based; details: for Letal Dose (μM) LD25: Table II, 72 h, MTT, 25% cell death
Method: as §1, §2, §3

HBEC wt cells = type: cell-based; details: for Letal Dose (μM) LD25: Table II, HBEC WT, 72 h, MTT, 25% cell death; for Cell viability (%): HBEC wt
Method: as §1, §2, §3

ES2 cells = assay: MTT cytotoxicity assay, ES2; type: cell-based; details: for Letal Dose (μM) LD25: Table VIII, 72 h, MTT, 25% cell death; for Cell viability (%): Table IX
Method: as §2
(§4) ES2, IGROV-1, OVCAR8 and SKOV3 cell lines come from human ovarian cancer.
as §3, with “ovarian” for “non small cell lung”, “cancer” for “cancer (NSCLC)”, “ovarian” for “lung”, “example 2.” for “Materials and Methods.”

SKOV3 cells = assay: MTT cytotoxicity assay, SKOV3; type: cell-based; details: for Letal Dose (μM) LD25: Table VIII, 72 h, MTT, 25% cell death; for Cell viability (%): Table IX
Method: as §2, §4
as §3, with “ovarian” for “non small cell lung”, “cancer” for “cancer (NSCLC)”, “ovarian” for “lung”, “example 2.” for “Materials and Methods.”

IGROV-1 cells = assay: MTT cytotoxicity assay, IGROV; type: cell-based; details: for Letal Dose (μM) LD25: Table VIII, 72 h, MTT, 25% cell death; for Cell viability (%): Table IX
Method: as §2, §4
as §3, with “ovarian” for “non small cell lung”, “cancer” for “cancer (NSCLC)”, “ovarian” for “lung”, “example 2.” for “Materials and Methods.”

OVCAR8 cells = assay: MTT cytotoxicity assay, OVCAR8; type: cell-based; details: for Letal Dose (μM) LD25: Table VIII, 72 h, MTT, 25% cell death; for Cell viability (%): Table IX
Method: as §2, §4
as §3, with “ovarian” for “non small cell lung”, “cancer” for “cancer (NSCLC)”, “ovarian” for “lung”, “example 2.” for “Materials and Methods.”

[1] = tested on: MP41 uveal melanoma cells; assay: MTT cytotoxicity assay, MP41; type: cell-based, human; details: MP41; 100 μM; 72 h
Method: as §2
MP41, MP46 and MP66 cell lines come from uveal melanoma patient derived xenografts. They were cultured in RPMI medium supplemented with 20% of FCS.
All the uveal melanoma cell lines were treated for 72 h with different concentrations of the peptides TAZ, “LV”, YAP and TEAD (SEQ ID NO: 35, 36, 37). Cytotoxicity was analysed as described in example 2. […] The best effect was shown in MP41 with about 40% cytotoxicity at 100 μM.

[2] = tested on: colon, lung and ovarian cancer cell lines; assay: MTT cytotoxicity, comparison of TAZ LV and VL peptides; type: cell-based, human; details: all lines tested except ES2: HCT116, HT29, SW480, OVCAR8, A549, HT1975; 72 h; 0.1 to 100 μM (FIGS. 5 to 8)
Method: as §2

[3] = Table V, drug alone vs its vehicle (Glucose 5% or NaCl)
[4] = Table VI, peptide alone vs HPCD 10%
[5] = Table III, drug alone vs its vehicle (HPCD10%, NaCl or Glucose 5%)

Compound	Letal Dose (μM) LD25 (A549 cells) [µM]	Cell viability (%) (A549 cells; [4])	Letal Dose (μM) LD25 (H1299 cells) [µM]	Cell viability (%) (H1299 cells; [4])	Letal Dose (μM) LD25 (H1650 cells) [µM]	Cell viability (%) (H1650 cells; [4])	Letal Dose (μM) LD25 (H1975 cells) [µM]	Cell viability (%) (H1975 cells; [4])	Letal Dose (μM) LD25 (HBEC RasV12 cells) [µM]	Cell viability (%) (HBEC RasV12 cells; [4])	Letal Dose (μM) LD25 (HBEC wt cells) [µM]	Cell viability (%) (HBEC wt cells; [4])	Letal Dose (μM) LD25 (ES2 cells) [µM]	Letal Dose (μM) LD25 (SKOV3 cells) [µM]	Letal Dose (μM) LD25 (IGROV-1 cells) [µM]	Letal Dose (μM) LD25 (OVCAR8 cells) [µM]	also measured
CC[C@H](C)[C@H](NC(=O)[C@H](CCCCN)NC(=O)[C@H](CCCCN)NC(=O)[C@H](CCCCN)NC(=O)[C@H](CCCCN)NC(=O)[C@@H](N)C(C)C)C(=O)N[C@@H](CCCCN)C(=O)N[C@@H](C)C(=O)N[C@@H](CCC(=O)O)C(=O)N[C@H](C(=O)N[C@@H](CCCCN)C(=O)N[C@H](C(=O)N[C@@H](CCCCN)C(=O)N[C@H](C(=O)N[C@@H](C)C(=O)N[C@@H](CC(N)=O)C(=O)N[C@H](C(=O)N1CCC[C@H]1C(=O)N[C@@H](CCC(N)=O)C(=O)N[C@H](C(=O)N[C@H](C(=O)N1CCC[C@H]1C(=O)N[C@@H](CCSC)C(=O)N[C@@H](CCCNC(=N)N)C(=O)N[C@@H](CC(C)C)C(=O)N[C@@H](CCCNC(=N)N)C(=O)N[C@@H](CCCCN)C(=O)N[C@@H](CC(C)C)C(=O)N1CCC[C@H]1C(=O)N[C@@H](CC(=O)O)C(=O)O)C(C)C)[C@@H](C)O)C(C)C)[C@@H](C)O)[C@@H](C)CC)[C@@H](C)CC [YAP] (H-VKKKKIKAEIKIKTANVPQTVPMRLRKLPD-OH)	>100	−10.25	>100	−13.8	>100	−4.488	>100	−5.766	>100	−44.98	>100	−41.35	>100	>100	>100	>100	Cell viability (%) (A549 cells; [3]): −23.19%; Cell viability (%) (H1299 cells; [3]): −40.21%; Cell viability (%) (H1650 cells; [3]): −45.14%; Cell viability (%) (H1975 cells; [3]): −26.22%; Cell viability (%) (HBEC RasV12 cells; [3]): −72.88%; Cell viability (%) (HBEC wt cells; [3]): −60.73%; cytotoxicity [1]: about 40%
VKKKKIKAEIKI-PPHAFFVLKFWADLNWGPSGEEAGAG (VKKKKIKAEIKIPPHAFFVLKFWADLNWGPSGEEAGAG) [TAZ “VL”]	–	–	–	–	–	–	–	–	–	–	–	–	–	–	–	–	effect on cellular viability, TAZ “LV” compared with TAZ “VL” [2]: same effect
VKKKKIKAEIKIPPHAFFVLKFWADLNWGPSGEEAGAG [TAZ]	6	−7.835	5	−8.413	>100	−2.439	3	−13.21	2.5	−53.02	2.5	−66.15	6	60	5	9	Cell viability (%) (A549 cells; [5]): −38%; Cell viability (%) (H1299 cells; [5]): −24.71%; Cell viability (%) (H1650 cells; [5]): −30.68%; Cell viability (%) (H1975 cells; [5]): −49.35%; Cell viability (%) (HBEC RasV12 cells; [5]): −89.9%; Cell viability (%) (HBEC wt cells; [5]): −58.16%; Cell viability (%) (ES2 cells; TAZ 10 μM vs HPCD 10%): −46.33%; Cell viability (%) (ES2 cells; TAZ 25 μM vs HPCD 10%): −57.44%; Cell viability (%) (SKOV3 cells; TAZ 10 μM vs HPCD 10%): −26.64%; Cell viability (%) (SKOV3 cells; TAZ 25 μM vs HPCD 10%): −36.09%; Cell viability (%) (IGROV-1 cells; TAZ 10 μM vs HPCD 10%): −39.39%; Cell viability (%) (IGROV-1 cells; TAZ 25 μM vs HPCD 10%): −34%; Cell viability (%) (OVCAR8 cells; TAZ 10 μM vs HPCD 10%): −18.7%; Cell viability (%) (OVCAR8 cells; TAZ 25 μM vs HPCD 10%): −24.69%
CC(=O)O[C@H]1C(=O)[C@@]2(C)[C@H]([C@H](OC(=O)c3ccccc3)[C@]3(O)C[C@H](OC(=O)[C@H](O)[C@@H](NC(=O)c4ccccc4)c4ccccc4)C(C)=C1C3(C)C)[C@]1(OC(C)=O)CO[C@@H]1C[C@@H]2O [Paclitaxel]	–	–	–	–	–	–	–	–	–	–	–	–	0.004	0.005	0.002	0.003	–

Source: US20160264636A1, “PEPTIDE INHIBITORS OF TEAD/YAP-TAZ INTERACTION” (UNIVERSITE PIERRE ET MARIE CURIE (PARIS 6), priority 2013, published 2016)
